# Reference: patent publication US20240350483A1, “COMBINATION THERAPY FOR THE TREATMENT OF PSYCHIATRIC DISORDER” (GSKB Pharmaceuticals, LLC, priority 2023, published 2024)
# Legend:
# [1] = tested on: Patients with Major Depressive Disorder (MDD); test: Case 2: outpatient treatment of persistent suicidal ideation; type: in vivo, human
# From the text: Treatment of Chronic Suicidal Ideation and Behavior in Patients with Major Depressive Disorder (MDD).
# A person presented to the outpatient psychiatric clinic accompanied by their spouse and child after being referred by a friend. Their condition had not improved over the past several years despite ongoing psychiatric treatment including in-patient hospitalizations and multiple medication failures. They reported they had been, “feeling the stress”, experiencing racing and ruminating thoughts, difficulty with conversation, and panic. They expressed persistent suicidal ideation. They denied current or past self-injurious behavior.
# • Sensorium: Alert and oriented to person, place, time, situation • Appearance: Casually dressed, well kempt, appeared older than stated age, thin to normal body habitus • Affect: Constricted, tearful at times • Mood: Depressed • Speech: Normal rate, tone, and rhythm. Louder when irritable and argumentative • Thought Content: Passive suicidal ideation, no delusions. • Thought Process: Coherent, logical, mildly circumstantial. • Perception: No auditory or visual hallucinations • Memory: Intact • Abstract Thinking: Intact • Judgment: Fair to good • Insight: Good
# During their initial psychiatric evaluation, they were diagnosed with Bipolar Disorder, Unspecified; Rule out Amphetamine-induced psychosis due to their intermittent paranoia, impulsivity, and agitation. […]
# [2] = tested on: Patients with Major Depressive Disorder (MDD); test: Case Study 1: outpatient treatment of chronic suicidal ideation and behavior; type: in vivo, human
# Protocol: Treatment of Chronic Suicidal Ideation and Behavior in Patients with Major Depressive Disorder (MDD). A married person and parent of three, presented to the outpatient clinic Jul. 16, 2019 to establish care with a new psychiatrist for management of their depression, mood swings, and persistent suicidal ideations. They reported that their current medications, bupropion XL 300 mg q daily, valproic acid 500 mg BID, quetiapine 200 mg daily, and venlafaxine XR 150 mg BID, modafinil 200 mg q AM and noon, buspirone 10 mg TID are not helping. They had been experiencing acute daily changes in mood consisting of unhappiness, irritability, and anger with lead to arguments with their spouse and family. They had been suffering from persistent depression, self-harm, and suicidal impulses. They had three previous suicide attempts resulting in hospitalization, the most recent being six years prior. • During the Initial Psychiatric Evaluation, they were alert and oriented to person, place, time, and situation. […]
structure (smiles),measurement,setting,value
"CCc1nn(CCCN2CCN(c3cccc(Cl)c3)CC2)c(=O)n1CCOc1ccccc1 [nefazodone, 1-(3-[4-(3-chlorophenyl)piperazin-1-yl]propyl)-3-ethyl-4-(2-phenoxyethyl)-1H-1,2,4-triazol-5 (4H)-one]",suicidal thoughts after restarting nefazodone,"[1]; nefazodone restarted and slightly increased, close follow up",rapid disappearance
same,suicidal ideation after stopping nefazodone,"[1]; nefazodone stopped for several weeks, after eight months of stability",having suicidal ideation
same,suicidal ideations after forgetting and running out of nefazodone,"[2]; Nov. 11, 2019, treatment interrupted",more suicidal ideations
same,side effect reported,[2]; suspected to be caused by increase in nefazodone to 200 mg BID,drowsiness
